ChEMBL document CHEMBL1201862, “PubChem BioAssay data set” (2004)
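Dose response: 5 concentrations. Exposure: 48 h. Format: 96-well plates. Endpoint: linear interpolation; highest concentration if not reached. GI50: concentration for 50% inhibition of growth.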 Activity calls are given as the source filed them. Rule as the data show it: active = GI50 up to about 1.1 µM and inactive = higher.

Key:
Experiment in all cases: inhibition of tumour cell growth, NCI panel, 48 h
[1] = system: M14
[2] = system: Malme-3M
[3] = system: SN12C
[4] = system: UACC-62
[5] = system: HCT-15
[6] = system: KM12
[7] = system: MOLT-4
[8] = system: K562
[9] = system: NCI-H522
[10] = system: HOP-92
[11] = system: NCI-H23
[12] = system: A549
[13] = system: SR
[14] = system: LOX IMVI
[15] = system: A498

| SMILES | GI50 [1] | GI50 [2] | GI50 [3] | GI50 [4] | GI50 [5] [µM] | GI50 [6] | GI50 [7] | GI50 [8] | GI50 [9] | GI50 [10] | GI50 [11] | GI50 [12] | GI50 [13] | GI50 [14] | GI50 [15] |
| --- | --- | --- | --- | --- | --- | --- | --- | --- | --- | --- | --- | --- | --- | --- | --- |
| COc1cc2c(cc1OC)C(=O)N1CCCC1C(=O)S2 (stereo not drawn) | > 100 µM (inactive) | > 100 µM (inactive) | > 100 µM (inactive) | 35.6 µM (inactive) | > 100 | > 100 µM (inactive) | > 100 µM (inactive) | > 100 µM (inactive) | > 100 µM (inactive) | > 100 µM (inactive) | > 100 µM (inactive) | > 100 µM (inactive) | > 100 µM (inactive) | > 100 µM (inactive) | – |
| O=C1c2ccccc2C(=O)c2nc3ccc(Cl)cc3cc21 | > 100 µM (inactive) | > 100 µM (inactive) | > 100 µM (inactive) | > 100 µM (inactive) | > 100 | > 100 µM (inactive) | > 100 µM (inactive) | > 100 µM (inactive) | > 100 µM (inactive) | > 100 µM (inactive) | > 100 µM (inactive) | > 100 µM (inactive) | > 100 µM (inactive) | > 100 µM (inactive) | – |
| COc1ccc([C@H]2CC(=O)NCCCCN2)cc1 | > 100 µM (inactive) | > 100 µM (inactive) | > 100 µM (inactive) | > 100 µM (inactive) | > 100 | > 100 µM (inactive) | > 100 µM (inactive) | > 100 µM (inactive) | > 100 µM (inactive) | 57.1 µM (inactive) | > 100 µM (inactive) | > 100 µM (inactive) | > 100 µM (inactive) | – | > 100 µM (inactive) |
| O=C1CCC(=O)c2c1c(O)c1ccncc1c2O | 15.6 µM (inactive) | 16 µM (inactive) | 17.5 µM (inactive) | 6.4 µM (inactive) | 12.9 | 16.3 µM (inactive) | 18.2 µM (inactive) | 18.8 µM (inactive) | 12 µM (inactive) | 22.8 µM (inactive) | 16.4 µM (inactive) | 20.4 µM (inactive) | 13 µM (inactive) | 13.8 µM (inactive) | – |
| CCN(CC)CCn1c2ccccc2c(=O)c2c(OC)ccc(OC)c21 | > 100 µM (inactive) | 77.4 µM (inactive) | 52.4 µM (inactive) | > 10 µM (inactive) | 57.5 | 56.9 µM (inactive) | 36.8 µM (inactive) | 35.3 µM (inactive) | > 96.4 µM (inactive) | > 94.2 µM (inactive) | > 100 µM (inactive) | 63.7 µM (inactive) | 32.2 µM (inactive) | 36.5 µM (inactive) | 97.5 µM (inactive) |
| Cc1ccc(/N=N/c2ccc(N(CCC#N)CCC#N)cc2C)c(Br)c1 | 20.5 µM (inactive) | 44.2 µM (inactive) | 19.4 µM (inactive) | 13.5 µM (inactive) | 2.78 | 3.5 µM (inactive) | 7.5 µM (inactive) | 3.13 µM (inactive) | 18.5 µM (inactive) | – | 21.3 µM (inactive) | 21.5 µM (inactive) | – | 3.33 µM (inactive) | 51.9 µM (inactive) |
| CC1COS(=O)O1 (stereo not drawn) | > 100 µM (inactive) | > 100 µM (inactive) | > 100 µM (inactive) | > 100 µM (inactive) | > 100 | > 100 µM (inactive) | > 100 µM (inactive) | > 100 µM (inactive) | > 100 µM (inactive) | > 100 µM (inactive) | > 100 µM (inactive) | > 100 µM (inactive) | > 100 µM (inactive) | > 100 µM (inactive) | > 100 µM (inactive) |
| O=C1OC(=O)c2c1c(-c1ccccc1)cn2-c1ccc(Cl)cc1 | 8.28 µM (inactive) | > 100 µM (inactive) | > 100 µM (inactive) | 1.64 µM (inactive) | 45.3 | 86.1 µM (inactive) | 15 µM (inactive) | 2.22 µM (inactive) | 67.3 µM (inactive) | > 100 µM (inactive) | > 100 µM (inactive) | 83 µM (inactive) | > 100 µM (inactive) | 48.1 µM (inactive) | – |
| N/N=C(\Cc1ccccc1)NN=C(N)N | > 100 µM (inactive) | > 100 µM (inactive) | > 100 µM (inactive) | > 100 µM (inactive) | 74.8 | > 100 µM (inactive) | 47.1 µM (inactive) | > 100 µM (inactive) | 32.1 µM (inactive) | > 100 µM (inactive) | > 100 µM (inactive) | > 100 µM (inactive) | > 100 µM (inactive) | > 100 µM (inactive) | > 100 µM (inactive) |
| COc1nc(NC2OC(COC(C)=O)C(OC(C)=O)C(OC(C)=O)C2OC(C)=O)c(-c2csc(N)n2)c(=O)n1C (stereo not drawn) | 78.7 µM (inactive) | 26.8 µM (inactive) | > 100 µM (inactive) | 33.7 µM (inactive) | > 100 | > 100 µM (inactive) | > 100 µM (inactive) | 60.1 µM (inactive) | 46.5 µM (inactive) | 28.4 µM (inactive) | 66.1 µM (inactive) | 55 µM (inactive) | > 100 µM (inactive) | > 100 µM (inactive) | > 100 µM (inactive) |
